Results reported in patent US9005922B2, “Sensor chip for screening topoisomerase inhibitor and screening method thereof” (Taipei Medical University, priority 2010, dated 2015).

What was measured:
[1] = biological target: T1, recombinant human topoisomerase I (hTop I) (Homo sapiens, UniProt P11387); test: Gel electrophoresis assay of pUC19 supercoiled DNA relaxation by hTop I; type: biochemical; conditions: pUC19 plasmid DNA with hTop I, agarose gel, CPT 2-8 μM, FIG. 4 lanes 3-6
T1 construct: made in house
T1 sequence (P11387 1-765): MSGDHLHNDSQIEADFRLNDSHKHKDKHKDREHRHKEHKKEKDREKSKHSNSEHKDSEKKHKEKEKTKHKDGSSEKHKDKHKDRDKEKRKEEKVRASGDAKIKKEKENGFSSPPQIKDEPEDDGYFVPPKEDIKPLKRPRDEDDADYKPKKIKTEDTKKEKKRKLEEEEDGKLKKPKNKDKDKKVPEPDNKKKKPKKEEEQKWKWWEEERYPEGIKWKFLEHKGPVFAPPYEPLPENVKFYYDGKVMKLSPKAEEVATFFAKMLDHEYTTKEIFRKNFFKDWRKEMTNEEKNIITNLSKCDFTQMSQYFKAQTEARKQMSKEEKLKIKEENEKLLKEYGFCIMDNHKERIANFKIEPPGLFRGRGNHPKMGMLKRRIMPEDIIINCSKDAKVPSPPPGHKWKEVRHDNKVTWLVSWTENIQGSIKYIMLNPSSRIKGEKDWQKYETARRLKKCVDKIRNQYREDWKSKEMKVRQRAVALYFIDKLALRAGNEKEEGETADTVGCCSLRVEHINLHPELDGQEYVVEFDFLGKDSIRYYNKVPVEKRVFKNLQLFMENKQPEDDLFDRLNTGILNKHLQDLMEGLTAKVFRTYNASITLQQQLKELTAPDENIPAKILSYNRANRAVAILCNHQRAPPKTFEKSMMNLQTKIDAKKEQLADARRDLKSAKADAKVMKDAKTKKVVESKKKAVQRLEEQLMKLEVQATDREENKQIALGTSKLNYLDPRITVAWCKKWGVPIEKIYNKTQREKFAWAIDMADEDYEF
Source text: The pUC19 plasmid DNA is closely circular double-stranded supercoiled DNA. When the pUC19 plasmid DNA is interacted with the Top I, one strand of the circular double-stranded supercoiled DNA is cleaved, separated and religated to form a relaxed form. A gel electrophoresis assay is used to evaluate the conformational change of pUC19 plasmid DNA.

[2] = biological target: T2, hTopI-DNA cleavage complex (Homo sapiens, UniProt P11387); test: SPR assay on sensor chip with immobilized hTop I, inhibitor together with pUC19 plasmid DNA in analytes; type: binding
T2 construct: made in house
T2 sequence (P11387 1-765): T1 sequence (P11387 1-765)
Description: (§1) Briefly, the surface of the micro-fluid chip is activated with 0.05-0.5 M N-hydroxysuccinimide and 0.1-0.5 M N-ethyl-N′-(3-dimethylaminopropyl) carbodiimimide at a flow rate of 25 μL/min. The hTop I is diluted in 10 mM sodium acetate and adjusted pH values to pH 3.0-10.0, preferably to pH 5.0-8.5, especially to pH 7.5. The hTop I is immobilized on the micro-fluid chip at 20-40[…] (preferably at 25[…]) using a flow rate of 10-40 μL/min (preferably 25-30 μL/min, specially 25 μL/min) for 60-300 seconds (preferably 200-300 seconds), and therefore the contents of the hTop I are about 20-150 μL. Activated amine groups are quenched with injecting 1 M ethanolamine (pH 7.0-9.0). Recombinant hTop I was covalently coupled to the carboxymethylated dextran surface of the chip using standard amine-coupling chemistry.
To characterize the drug-binding kinetics using the SPR sensor chip, plasmid DNA (1.0 μg/ml) is included in the analytes. […] The interaction causes an increase in the higher the mass of ligands immobilized on the micro-fluid chip, and is reflected in a rise in RUs.

[3] = biological target: T3, immobilized hTop I (Homo sapiens, UniProt P11387); test: SPR assay on sensor chip with immobilized hTop I, inhibitor alone without DNA in analytes; type: binding; conditions: CPT alone 0-250 nM, no DNA in analytes, FIG. 8
T3 construct: made in house
T3 sequence (P11387 1-765): T1 sequence (P11387 1-765)
Description: as §1
[…] […] The interaction causes an increase in the higher the mass of ligands immobilized on the micro-fluid chip, and is reflected in a rise in RUs.

[4] = pUC19 plasmid DNA 1.0 μg/ml plus CPT, compared to DNA only, ProteOn Manager 2.0 calculation

| binding to hTop I immobilized on the micro-fluid chip ([2]; VP-16 and pUC19 plasmid DNA loaded simultaneously) | Structure (SMILES) | inhibitory effect on hTop I relaxation activity (supercoiled DNA retained) [1] | RU response (binding) ([2]; pUC19 plasmid DNA 1.0 μg/ml plus CPT 0, 62.5, 125 and 250 nM, FIG. 9) | Ka [2, 4] | Kd [2, 4] | binding to hTop I (RU values) [3] |
| --- | --- | --- | --- | --- | --- | --- |
| – | CC[C@@]1(O)C(=O)OCc2c1cc1n(c2=O)Cc2cc3ccccc3nc2-1 [CPT, camptothecin] | inhibited hTop I relaxation activity | RU increases in a concentration-dependent manner | 9.11×10^7 | 3.74×10^−21 | does not bind to hTopI without DNA |
| does not bind to the hTop I | COc1cc([C@@H]2c3cc4c(cc3[C@@H](O[C@@H]3O[C@@H]5CO[C@@H](C)O[C@H]5[C@H](O)[C@H]3O)[C@H]3COC(=O)[C@H]23)OCO4)cc(OC)c1O [VP-16, etoposide] | – | – | – | – | – |
